{"source": "patent EP2243478A1", "about": "“PHARMACEUTICAL COMPOSITION COMBINING AN ANTIARTHRITIC AGENT AND AN INTERLEUKIN-1 INHIBITING AGENT, WHICH CAN BE USED TO CONTROL AND TREAT OSTEOARTHRITIS AND RELATED DISEASES” (World Trade Import-Export, WTIE A.G., priority 2007, dated 2009)", "key": {"[1]": {"settings": "cited from earlier work"}, "pain": {"tested_on": "pain", "settings": "dose from 2 to 4 gr/day; cited from earlier work"}, "patients with hip OA": {"tested_on": "patients with hip OA", "assay": "comparative clinical study of Diacerein, Chondroitin and the combination Diacerein/Chondroitin, 6 month follow-up", "format": "in vivo", "procedure": "A comparative clinical study in patients with hip OA was carried out with a 6 month term for follow-up. The study compared the efficacy of single Diacerein administration, single chondroitin and a combination of Diacerein/Chondroitin. The study included 120 patients which were divided in 3 treatment groups: • Groups 1: received Diacerein 50 mg administration twice a day. • Group 2: received Chondroitin 600 mg administration twice a day. • Group 3 : received Diacerein 50 mg /Chondroitin 600 mg administration twice a day.\nPatients fulfilled with the inclusion criteria from the American Rheumatology Academy. Inclusion criteria were: • Symptomatic disease presence, defined as daily hip pain at least during the last two months. • A functional pain Lequesne index at least of 3 points. • Radiographic criteria were a joint space between 1 and 3 mm (without exceeding 3 mm) or less than 0.5 mm qf contralateral hip.\nJoint hip space was measured through a prior pelvic radiography reading center, using a graded 0.1 mm magnification crystal. Start and end of treatment was radiographically assessed comparing the affected vs contralateral hip.\nLaboratory analyses were carried out at the beginning of the study and on 6 months of treatment, assessing liver and kidney performance."}, "[2]": {"settings": "in vivo; cited from earlier work"}, "[3]": {"settings": "cited from earlier work", "remark": "listed apart in the source"}}, "data": [{"smiles": "O=C(O)c1cc(O)c2c(c1)C(=O)c1cccc(O)c1C2=O", "note": "[Rein, rein]", "values": [{"measurement": "bound to plasma proteins", "setting": "[1]", "result": 99, "unit": "%"}]}, {"smiles": "CC(=O)Nc1ccc(O)cc1", "note": "[Paracetamol]", "values": [{"measurement": "controlling pain in patients", "setting": "pain", "result": "40 % of patients"}]}, {"smiles": "CC(=O)Oc1cccc2c1C(=O)c1c(OC(C)=O)cc(C(=O)O)cc1C2=O", "note": "[Diacerein]", "values": [{"measurement": "Patient percentage with radiographic progression (joint space loss at least of 0.5 mm)", "setting": "patients with hip OA; Data from first laboratory analysis, P= 0.035", "result": 51.6, "unit": "%"}, {"measurement": "Patient percentage with radiographic progression (joint space loss at least of 0.5 mm)", "setting": "patients with hip OA; Data upon 6 month treatment completion, P= 0.006", "result": 46.7, "unit": "%"}, {"measurement": "patients cancelled the treatment (because of inefficacy)", "setting": "patients with hip OA; after two months of treatment (time printed for Group 1), forty patients per group, twice a day oral", "result": 6, "unit": "patients"}, {"measurement": "joint space, Average ± SD", "setting": "patients with hip OA; at 6 months of treatment, hip", "result": "0.17 ± 0.24", "unit": "mm/6 months"}, {"measurement": "clearance half-life in plasma", "setting": "[2]", "result": "5 to 7", "unit": "h"}, {"measurement": "slow action start, not significant until", "setting": "[3]; after treatment", "result": 4, "unit": "weeks"}, {"measurement": "effect is maintained after having cancelled the treatment", "setting": "[3]; in vivo", "result": "≥ 2", "unit": "months"}]}]}
